Experimental data from patent US9278994B2, “Short antimicrobial lipopeptides” (Helix BioMedix Inc., priority 2012, dated 2016).
Converted amounts (≈) assume the structure as drawn. Where a SMILES comes first, the peptide text is derived from it. [ ]: non-standard residue; d: D form. The star is where a group is joined. Stearoyl = CCCCCCCCCCCCCCCCCC(=O)*; Palmitoyl = CCCCCCCCCCCCCCCC(=O)*; Undecanoyl = CCCCCCCCCCC(=O)*; Lauroyl = CCCCCCCCCCCC(=O)*; Decanoyl = CCCCCCCCCC(=O)*; Octanoyl = CCCCCCCC(=O)*

What was measured:
C. albicans 105 = tested on: C. albicans 105
Description: (§1) We conducted the minimal inhibitory concentration (MIC) determination using CLSI (Clinical and Laboratory standard Institute) recommended standard protocol for antimicrobials (Methods for Dilution Antimicrobial Susceptibility Tests for Bacteria That Grow Aerobically; Approved Standard—Ninth Edition).
(§2) 2. Bacterial strains and culture conditions. E. coli UB1005, S. aureus SAP0017 (MRSA) and C. albicans 105 were grown in Mueller Hinton (MH) (Difco, BD Biosciences, MD) agar plates and broth (2 g of beef extract, 17.5 g of acid hydrolysis of casein and 1.5 g of starch per liter) at 37° C. unless otherwise indicated. Bacteria from frozen stock were subcultured onto freshly made MH agar plates prior to susceptibility testing. For P. acnes, the bacterium was grown in BBL™ Brain-Heart infusion (Becton, Dickinson & Company, Sparks Md.) broth or agar plates at 37° C. in anaerobic condition generated using a anaerobic jar and AnaeroGen™ (Oxoid, Basingstoke, Hampshire, England).
(§3) 3. […] The minimal inhibitory concentration (MIC) of each peptide was determined using modified CLSI microtiter broth dilution assay (Methods for Dilution Antimicrobial Susceptibility Tests for Bacteria That Grow Aerobically; Approved Standard—Ninth Edition). An inoculum of 10^5-10^6 colony forming units (CFU)/ml was used or 10^4 CFU/ml for yeast. The MIC value was taken as the lowest peptide concentration at which more than 90% of microbial growth was inhibited after 15 to 20 h of incubation at 37° C. For P. acnes, the incubation was kept under anaerobic condition at 37° C. for 2 weeks before MIC was determined Kill kinetics was performed using a given concentration (about 2-5-fold MIC) of peptide mixed with indicator microorganism. After appropriate dilution the cells were plated on agar plates after defined time intervals and incubated at 37° C. overnight. In the case of P. acnes an extended incubation period was required. The CFU was counted and plotted as survival of bacteria after peptide treatment over time, which indicates the effectiveness of a peptide to kill a microbe.

E. coli UB1005 = tested on: E. coli UB1005
Description: as §1, §2, §3

S. aureus SAP0017 (MRSA) = tested on: S. aureus SAP0017 (MRSA)
Description: as §1, §2, §3

P. acnes = format: cell-based, Propionibacterium acnes
Description: as §2, §3

[1] = tested on: P. acnes, S. aureus, E. coli and C. albicans; test: MIC / antimicrobial activity; format: cell-based; conditions: summary of MIC results of Table 1
Description: as §2, §3

SMILES | MIC C. albicans (C. albicans 105) | MIC E. coli (E. coli UB1005) | MIC S. aureus (S. aureus SAP0017 (MRSA)) | MIC P. acnes (P. acnes) | antimicrobial activity (in words) [1]
CCCCCCCCCCCCCCCC(=O)N1CCC[C@H]1C(=O)N[C@@H](CCCCN)C(=O)O [HB2255, Pal-PK-OH] (Palmitoyl-Pro-Lys-OH) | >2000 µg/mL | >2000 µg/mL | >2000 µg/mL | >2000 µg/mL | inactive
CCCCCCCCCCCCCCCC(=O)N[C@@H](CCCCN)C(=O)N[C@@H](CCCNC(=N)N)C(=O)O [HB2253, Pal-KR-OH] (Palmitoyl-Lys-Arg-OH) | 32 µg/mL (≈ 0.0592 mM) | 500 µg/mL (≈ 0.925 mM) | 16 µg/mL (≈ 0.0296 mM) | 2 to 4 µg/mL | broad spectrum antimicrobial activity
CCCCCCCCCC(=O)N[C@@H](CCCCN)C(=O)N1CCC[C@H]1C(=O)N[C@H](C(=O)O)C(C)C [HB2185, Dec-KPV-OH] (Decanoyl-Lys-Pro-Val-OH) | >2000 µg/mL | >2000 µg/mL | >2000 µg/mL | >2000 µg/mL | –
CCCCCCCCCC(=O)N[C@@H](CCCCN)C(=O)N1CCC[C@@H]1C(=O)N[C@H](C(=O)O)[C@@H](C)O [HB2183, Dec-KdPT-OH] (Decanoyl-Lys-[dP]-Thr-OH) | >2000 µg/mL | >2000 µg/mL | >2000 µg/mL | >2000 µg/mL | –
CCCCCCCCCCCCCCCC(=O)N[C@@H](CCCCN)C(=O)N[C@@H](C)C(N)=O [HB2240, Pal-KA-NH2] (Palmitoyl-Lys-Ala-NH2) | >2000 µg/mL | >2000 µg/mL | >2000 µg/mL | >2000 µg/mL | –
CCCCCCCCCCCCCCCC(=O)N[C@@H](CCCCN)C(=O)N[C@@H](Cc1ccc(O)cc1)C(N)=O [HB2247, Pal-KY-NH2] | >2000 µg/mL | >2000 µg/mL | >2000 µg/mL | >2000 µg/mL | –
CCCCCCCCCCCCCCC(=O)N[C@@H](CCCCN)C(=O)N1CCC[C@H]1C(=O)N[C@H](C(N)=O)C(C)C [HB2192, Pentadecanoyl-KPV-NH2] | 32 µg/mL (≈ 0.0566 mM) | 64 µg/mL (≈ 0.113 mM) | 16 µg/mL (≈ 0.0283 mM) | 1 µg/mL (≈ 0.00177 mM) | –
CCCCCCCCCCCCCCCC(=O)N[C@@H](CCCCN)C(=O)N[C@H](C(N)=O)C(C)C [HB2239, Pal-KV-NH2] (Palmitoyl-Lys-Val-NH2) | >2000 µg/mL | >2000 µg/mL | >2000 µg/mL | >2000 µg/mL | –
CCCCCCCCCCCCCCCC(=O)N1CCC[C@@H]1C(=O)N[C@@H](CO)C(N)=O [HB2207, Pal-dPS-NH2] (Palmitoyl-[dP]-Ser-NH2) | >2000 µg/mL | >2000 µg/mL | >2000 µg/mL | 32 µg/mL (≈ 0.0728 mM) | –
CCCCCCCCCC(=O)N[C@@H](CCCCN)C(=O)N1CCC[C@@H]1C(=O)N[C@H](C(N)=O)[C@@H](C)O [HB2179, Dec-K-dPT-NH2] (Decanoyl-Lys-[dP]-Thr-NH2) | >2000 µg/mL | >2000 µg/mL | >2000 µg/mL | >2000 µg/mL | –
CCCCCCCCCCCCCCCC(=O)N[C@@H](CCCCN)C(=O)N[C@@H](CO)C(N)=O [HB2245, Pal-KS-NH2] | >2000 µg/mL | >2000 µg/mL | 1000 µg/mL (≈ 2.12 mM) | 128 µg/mL (≈ 0.272 mM) | –
CCCCCCCCCCCC(=O)N[C@@H](CCCCN)C(=O)N1CCC[C@@H]1C(=O)N[C@H](C(N)=O)[C@@H](C)O [HB2197, Lauroyl-kdPT-NH2] (Lauroyl-Lys-[dP]-Thr-NH2) | 500 µg/mL (≈ 0.951 mM) | 1000 µg/mL (≈ 1.9 mM) | 500 µg/mL (≈ 0.951 mM) | 128 µg/mL (≈ 0.243 mM) | –
CCCCCCCCCCCCCCCC(=O)N[C@@H](CCCCN)C(=O)N[C@H](C(N)=O)[C@@H](C)O [HB2236, Pal-KT-NH2] | >2000 µg/mL | >2000 µg/mL | >2000 µg/mL | 256 to 1000 µg/mL | –
CCCCCCCCCC(=O)N[C@@H](CCCCN)C(=O)N1CCC[C@H]1C(=O)N[C@H](C(N)=O)C(C)C [HB2181, Dec-KPV-NH2] (Decanoyl-Lys-Pro-Val-NH2) | >2000 µg/mL | >2000 µg/mL | >2000 µg/mL | 1000 µg/mL (≈ 2.02 mM) | –
CCCCCCCCCCCCCCC(=O)N[C@@H](CCCCN)C(=O)N1CCC[C@@H]1C(=O)N[C@H](C(N)=O)[C@@H](C)O [HB2199, Pentadecanoyl-KdPT-NH2] | 32 µg/mL (≈ 0.0564 mM) | 64 µg/mL (≈ 0.113 mM) | 32 µg/mL (≈ 0.0564 mM) | 2 to 4 µg/mL | –
CCCCCCCCCCC(=O)N[C@@H](CCCCN)C(=O)N1CCC[C@@H]1C(=O)N[C@H](C(N)=O)[C@@H](C)O [HB2196, Undecoyl-KdPT-NH2] (Undecanoyl-Lys-[dP]-Thr-NH2) | 1000 µg/mL (≈ 1.95 mM) | 2000 µg/mL (≈ 3.91 mM) | 1000 µg/mL (≈ 1.95 mM) | 256 to 500 µg/mL | –
CCCCCCCCCCC(=O)N[C@@H](CCCCN)C(=O)N1CCC[C@H]1C(=O)N[C@H](C(N)=O)C(C)C [HB2189, Undecoyl-KPV-NH2] (Undecanoyl-Lys-Pro-Val-NH2) | >2000 µg/mL | 2000 µg/mL (≈ 3.92 mM) | 1000 µg/mL (≈ 1.96 mM) | 256 to 500 µg/mL | –
CCCCCCCCCCCCCCCC(=O)N[C@@H](CCCCN)C(=O)N[C@@H](C(N)=O)[C@H](C)O [HB2237, Pal-K-dT-NH2] | >2000 µg/mL | >2000 µg/mL | >2000 µg/mL | 128 to 256 µg/mL | –
CCCCCCCCCCCC(=O)N[C@@H](CCCCN)C(=O)N1CCC[C@H]1C(=O)N[C@H](C(N)=O)C(C)C [HB2190, Lauroyl-KPV-NH2] (Lauroyl-Lys-Pro-Val-NH2) | >2000 µg/mL | 250 µg/mL (≈ 0.477 mM) | 250 µg/mL (≈ 0.477 mM) | 64 µg/mL (≈ 0.122 mM) | –
CCCCCCCCCCCCCCCCCC(=O)N[C@@H](CCCCN)C(=O)N1CCC[C@@H]1C(=O)N[C@H](C(N)=O)[C@@H](C)O [HB2201, Stearoyl-K-dPT-NH2] (Stearoyl-Lys-[dP]-Thr-NH2) | 8 µg/mL (≈ 0.0131 mM) | 128 µg/mL (≈ 0.21 mM) | 16 µg/mL (≈ 0.0262 mM) | 1 to 2 µg/mL | –
CCCCCCCC(=O)N[C@@H](CCCCN)C(=O)N1CCC[C@H]1C(=O)N[C@H](C(N)=O)C(C)C [HB2188, Octanoyl-KPV-NH2] (Octanoyl-Lys-Pro-Val-NH2) | >2000 µg/mL | >2000 µg/mL | >2000 µg/mL | >2000 µg/mL | –
CCCCCCCCCCCCCCCC(=O)N1CCC[C@H]1C(=O)N[C@H](C(N)=O)C(C)C [HB2205, Pal-PV-NH2] (Palmitoyl-Pro-Val-NH2) | >2000 µg/mL | >2000 µg/mL | >2000 µg/mL | >2000 µg/mL | –
CCCCCCCCCCCCCCCCCC(=O)N[C@@H](CCCCN)C(=O)N1CCC[C@H]1C(=O)N[C@H](C(N)=O)C(C)C [HB2194, Stearoyl-KPV-NH2] (Stearoyl-Lys-Pro-Val-NH2) | 16 µg/mL (≈ 0.0263 mM) | >2000 µg/mL | 16 µg/mL (≈ 0.0263 mM) | 1 to 2 µg/mL | –
